By solubility is commonly meant the concentration that dissolves in the medium under given conditions.

A value given as a limit tells only on which side of the number the result lay.

The values that follow come from patent publication US9217014B2, “Antifungal agents and uses thereof” (Cidara Therapeutics, Inc., priority 2011, dated 2015).

Data set [1] is described as follows: Solubility in aqueous buffers of varying pH. Type of data set: physicochemical. As to conditions: for solubility: ambient temperature, compound 1 as acetate salt. As to the method: The solubility of compound 1 (acetate salt) was measured in aqueous buffers of varying pH to assess this compound's suitability for formulation in an aqueous carrier for administration by injection (e.g., intravenous or intramuscular injection).

Data set [2] in a line: Solubility in non-aqueous solvents. Type of data set: physicochemical. As to conditions: organic solvent or mixture, compound 1 as acetate salt. As to the method:
The solubility of compound 1 (acetate salt) was also measured in non-aqueous solvents to assess this compound's suitability for formulation in non-aqueous carriers.

For `CCCCCOc1ccc(-c2ccc(-c3ccc(C(=O)N[C@H]4C[C@@H](O)C(OCC[N+](C)(C)C)NC(=O)C5[C@@H](O)[C@@H](C)CN5C(=O)C([C@@H](C)O)NC(=O)C([C@H](O)[C@@H](O)c5ccc(O)cc5)NC(=O)C5C[C@@H](O)CN5C(=O)C([C@@H](C)O)NC4=O)cc3)cc2)cc1` (stereo partly drawn) [compound 1], the solubility is over 15 mg/mL in data set [1] (aqueous buffer, pH 3 (0.01M formate buffer)); over 15 mg/mL in data set [1] (aqueous buffer, pH 4.6 (0.1M acetate buffer)); over 15 mg/mL in data set [1] (aqueous buffer, pH 5.6 (0.1M acetate buffer)); 0.05 mg/mL in data set [1] (aqueous buffer, pH 7.4 (0.1M phosphate buffer)); over 15 mg/mL in data set [1] (aqueous buffer, pH 8.5 (0.01M TRIS buffer)); 4.6 mg/mL in data set [1] (saline or isotonic, 0.9% saline). The solubility in data set [1] (simulated gastric fluid, pH 1 (0.1M HCl)) is over 15 mg/mL; in data set [2] (Ethanol (EtOH)), over 13.7 mg/mL; in data set [2] (Glycerol), over 19.4 mg/mL; in data set [2] (PEG400), over 34.1 mg/mL; in data set [2] (Propylene glycol(PG)), over 18.4 mg/mL. In addition, the “aqueous solubility compared with anidulafungin (in words)” value in data set [1] (over a broad pH range) was “dramatically greater aqueous solubility than anidulafungin”.
